Laboratory results taken from patent publication US11339155B2, “2-(het)aryl-substituted fused bicyclic heterocycle derivatives as pesticides” (Bayer CropScience Aktiengesellschaft, priority 2016, dated 2022).
Each block holds one compound with its values, some of them ahead of it.

Tests used:
[1] = tested on: Myzus persicae; test: Myzus persicae spray test (MYZUPE); type: in vivo; conditions: 120 h; for pest or weed control at 500 g/ha / pest or weed control at 100 g/ha: foliar, Chinese cabbage leaf discs, after 5 days, read-out: efficacy; for Emax at 20 g/ha: MYZUPE, 5 dat, read-out: % efficacy
Protocol: Solvent: 78 parts by weight of acetone • • 1.5 parts by weight of dimethylformamide
(§1) Emulsifier: alkylaryl polyglycol ether
(§2) To produce a suitable active compound preparation, 1 part by weight of active compound is dissolved with the specified parts by weight of solvent and made up to the desired concentration with water containing an emulsifier concentration of 1000 ppm. To produce further test concentrations, the formulation is diluted with emulsifier-containing water.
Discs of Chinese cabbage leaves (Brassica pekinensis) infested by all stages of the green peach aphid (Myzus persicae) are sprayed with an active compound preparation of the desired concentration.
(§3) After 5 days, the efficacy in % is determined. 100% means that all the aphids have been killed; 0% means that no aphids have been killed.
(§4) Solvent: 78.0 parts by weight of acetone • • 1.5 parts by weight of dimethylformamide
After the desired period of time, the efficacy in % is determined. 100% means that all the aphids have been killed; 0% means that no aphids have been killed.

[2] = tested on: Phaedon cochleariae; test: Phaedon cochleariae spray test (PHAECO); type: in vivo; conditions: for efficacy: larvae on Chinese cabbage leaf discs, after 7 days; for Emax at 20 g/ha: Phaedon cochleariae, 168 h, PHAECO, 7 dat, read-out: % efficacy
Protocol: as §4, §1, §2
After 7 days, the efficacy in % is determined. 100% means that all the beetle larvae have been killed; 0% means that no beetle larvae have been killed.
After the desired period of time, the efficacy in % is determined. 100% means that all the beetle larvae have been killed; 0% means that no beetle larvae have been killed.

[3] = tested on: Meloidogyne incognita; test: Meloidogyne incognita test; type: in vivo; conditions: 20 ppm, lettuce, after 14 days
Protocol: Solvent: 125.0 parts by weight of acetone To produce a suitable active compound preparation, 1 part by weight of active compound is mixed with the stated amount of solvent and the concentrate is diluted to the desired concentration with water. Vessels are filled with sand, active compound solution, an egg/larvae suspension of the southern root-knot nematode (Meloidogyne incognita) and lettuce seeds. The lettuce seeds germinate and the plants develop. The galls develop on the roots. After 14 days, the nematicidal efficacy in % is determined by the formation of galls. 100% means that no galls were found; 0% means that the number of galls on the treated plants corresponds to the untreated control.

[4] = tested on: Tetranychus urticae; test: Tetranychus urticae spray test, OP-resistant (TETRUR); type: in vivo; conditions: for efficacy / Emax at 100 g/ha: 100 g/ha; for efficacy: bean leaf discs, after 6 days; for Emax at 100 g/ha / Emax at 500 g/ha: Tetranychus urticae, 144 h, TETRUR, read-out: % efficacy; for Emax at 100 g/ha: 6 dat (comparative table); for Emax at 500 g/ha: 6 dat
Protocol: as §4, §1, §2
Discs of bean leaves (Phaseolus vulgaris) infested with all stages of the greenhouse red spider mite (Tetranychus urticae) are sprayed with an active compound preparation of the desired concentration.
After 6 days, the efficacy in % is determined. 100% means that all the spider mites have been killed; 0% means that no spider mites have been killed.
After the desired period of time, the efficacy in % is determined. 100% means that all the spider mites have been killed; 0% means that no spider mites have been killed.

[5] = tested on: Ctenocephalides felis; test: Ctenocephalides felis oral test; type: in vivo; conditions: 100 ppm in citrated cattle blood, adult cat fleas, after 2 days
Protocol: Solvent: dimethyl sulfoxide To produce a suitable active compound preparation, 10 mg of active compound are mixed with 0.5 ml of dimethyl sulfoxide. Dilution with citrated cattle blood gives the desired concentration. About 20 unfed adult cat fleas (Ctenocephalides felis) are placed into a chamber which is closed at the top and bottom with gauze. A metal cylinder whose bottom end is closed with parafilm is placed onto the chamber. The cylinder contains the blood/active compound preparation, which can be imbibed by the fleas through the parafilm membrane. After 2 days, the kill in % is determined. 100% means that all of the fleas have been killed; 0% means that none of the fleas have been killed.

[6] = tested on: Myzus persicae; test: Myzus persicae oral test; type: in vivo; conditions: 120 h, after 5 days, read-out: efficacy
Protocol: Solvent: 100 parts by weight of acetone
To produce a suitable active compound preparation, 1 part by weight of active compound is dissolved with the stated parts by weight of solvent and made up to the desired concentration with water.
50 μl of the active compound preparation are transferred into microtitre plates and made up to a final volume of 200 μl with 150 μl of IPL41 insect medium (33%+15% sugar). Subsequently, the plates are sealed with parafilm, which a mixed population of green peach aphids (Myzus persicae) within a second microtitre plate is able to puncture and imbibe the solution.
as §3

[7] = tested on: Lucilia cuprina; test: Lucilia cuprina test; type: in vivo; conditions: 100 ppm, L1 larvae, after 2 days
Protocol: Solvent: dimethyl sulfoxide To produce a suitable active compound preparation, 10 mg of active compound are mixed with 0.5 ml of dimethyl sulfoxide, and the concentrate is diluted with water to the desired concentration. About 20 L1 larvae of the Australian sheep blowfly (Lucilia cuprina) are transferred into a test vessel containing minced horsemeat and the active compound preparation of the desired concentration. After 2 days, the kill in % is determined. 100% means that all the larvae have been killed; 0% means that no larvae have been killed.

[8] = tested on: Ctenocephalides felis; test: Ctenocephalides felis in vitro contact test with adult cat fleas; type: in vivo; conditions: 5 μg/cm^2 (=500 g/ha), after 48 h
Protocol: For the coating of the test tubes, 9 mg of active compound are first dissolved in 1 ml of acetone p.a. and then diluted to the desired concentration with acetone p.a. 250 μl of the solution are distributed homogeneously on the inner walls and the base of a 25 ml glass tube by turning and rocking on an orbital shaker (rocking rotation at 30 rpm for 2 h). With 900 ppm of active compound solution and internal surface area 44.7 cm^2, given homogeneous distribution, an area-based dose of 5 μg/cm^2 is achieved.
After the solvent has evaporated off, the tubes are populated with 5-10 adult cat fleas (Ctenocephalides felis), sealed with a perforated plastic lid and incubated in a horizontal position at room temperature and ambient humidity. After 48 h, efficacy is determined. To this end, the tubes are stood upright and the fleas are knocked to the base of the tube. Fleas which remain motionless at the base or move in an uncoordinated manner are considered to be dead or moribund.
100% efficacy means that all the fleas were dead or moribund. 0% efficacy means that no fleas were harmed.

[9] = log P by HPLC on reversed-phase column (EEC Directive 79/831 Annex V.A8); type: physicochemical; conditions: reversed-phase C18 HPLC column, C 18 reversed phase, 55° C., pH 7.8, read-out: log P (neutral)
From the text: Called log P (neutral) in the table.

[10] = tested on: Nezara viridula; test: Nezara viridula spray test (NEZAVI); type: in vivo; conditions: 96 h, 4 dat, read-out: % efficacy
Protocol: (§5) Solvent: 52.5 parts by weight of acetone • 7 parts by weight of dimethylformamide
as §1
as §2, with “water. If the addition of ammonium salts or/and penetrants is required, these are each added in a concentration of 1000 ppm to the formulation solution.” for “water.”
Barley plants (Hordeum vulgare) infected with larvae of the Southern green shield bug (Nezara viridula) are sprayed with an active compound preparation of the desired concentration.
After the desired period of time, the efficacy in % is determined. 100% means that all of the shield bugs have been killed; 0% means that none of the shield bugs have been killed.

[11] = tested on: Nilaparvata lugens; test: Nilaparvata lugens spray test (NILALU); type: in vivo; conditions: 96 h, 4 dat, read-out: % efficacy
Protocol: as §5, §1
as §2, with “water. If the addition of ammonium salts or/and penetrants is required, these are each added in a concentration of 1000 ppm to the formulation solution.” for “water.”
Rice plants (Oryza sativa) are sprayed with an active compound preparation of the desired concentration and then populated with larvae of the brown planthopper (Nilaparvata lugens).
After the desired period of time, the efficacy in % is determined. 100% means that all of the planthoppers have been killed; 0% means that none of the planthoppers have been killed.

Structure (SMILES): CCNC(=O)Nc1ccc(S(=O)(=O)CC)c(-c2nc3cc(C(F)(F)F)ncc3n2C)n1 [Example I-1]
pest or weed control at 500 g/ha [1]: 90% | efficacy ([2]; 500 g/ha): 100% | Emax at 20 g/ha [2]: 83% | nematicidal efficacy (formation of galls) [3]: 100% | efficacy [4]: 90% | Emax at 100 g/ha [4]: 90% | Emax at 500 g/ha [4]: 90% | efficacy (kill in %) [5]: 100%

Structure (SMILES): CCS(=O)(=O)c1ccc(NC(=O)NCCC#N)nc1-c1nc2cc(C(F)(F)F)ncc2n1C [Example I-2]
pest or weed control at 500 g/ha [1]: 90% | nematicidal efficacy (formation of galls) [3]: 100% | efficacy (kill in %) [5]: 100% | pest or weed control at 4 ppm [6]: 100% | pest or weed control at 20 ppm [6]: 100%

Structure (SMILES): CCS(=O)(=O)c1ccc(NC(=O)NCC[S+](C)[O-])nc1-c1nc2cc(C(F)(F)F)ncc2n1C (stereo not shown) [Example I-3]
pest or weed control at 100 g/ha [1]: 100% | nematicidal efficacy (formation of galls) [3]: 90% | efficacy [4]: 100% | efficacy (kill in %) [5]: 100% | pest or weed control at 4 ppm [6]: 100% | pest or weed control at 20 ppm [6]: 100%

chromatographic logP [9]: 1.83
Structure (SMILES): CCS(=O)(=O)c1ccc(NC(=O)NC)nc1-c1nc2cc(C(F)(F)F)ncc2n1C [Example I-4, 1-[5-Ethylsulfonyl-6-[3-methyl-6-(trifluoromethyl)imidazo[4,5-c]pyridin-2-yl]-2-pyridyl]-3-methylurea]
efficacy (kill in %) [7]: 100% | pest or weed control at 500 g/ha [1]: 90% | efficacy [8]: 100% | efficacy ([2]; 500 g/ha): 100% | efficacy (kill in %) [5]: 100% | Emax at 20 g/ha [10]: 100%

Structure (SMILES): CCS(=O)(=O)c1ccc(NC(=O)NCCOC)nc1-c1nc2cc(C(F)(F)F)ncc2n1C [Example I-5]
efficacy (kill in %) [7]: 100% | pest or weed control at 500 g/ha [1]: 100% | nematicidal efficacy (formation of galls) [3]: 100% | efficacy (kill in %) [5]: 80% | pest or weed control at 4 ppm [6]: 100% | pest or weed control at 20 ppm [6]: 100%

Structure (SMILES): CCS(=O)(=O)c1ccc(NC(=O)NCCSC)nc1-c1nc2cc(C(F)(F)F)ncc2n1C [Example I-6]
pest or weed control at 100 g/ha [1]: 90% | efficacy ([2]; 100 g/ha): 100% | efficacy [4]: 70% | pest or weed control at 4 ppm [6]: 100% | pest or weed control at 20 ppm [6]: 100%

Structure (SMILES): CCS(=O)(=O)c1ccc(NC(=O)NC(C)C)nc1-c1nc2cc(C(F)(F)F)ncc2n1C [Example I-7]
nematicidal efficacy (formation of galls) [3]: 90% | efficacy (kill in %) [5]: 100%

Structure (SMILES): CCS(=O)(=O)c1ccc(NC(=O)NCCS(C)(=O)=O)nc1-c1nc2cc(C(F)(F)F)ncc2n1C [Example I-8]
pest or weed control at 100 g/ha [1]: 90% | efficacy [4]: 100% | efficacy (kill in %) [5]: 100% | pest or weed control at 4 ppm [6]: 90% | pest or weed control at 20 ppm [6]: 100%

Structure (SMILES): CCS(=O)(=O)c1ccc(N(C)C(=O)NC)nc1-c1nc2cc(C(F)(F)F)ncc2n1C [Example I-12]
Emax at 20 g/ha [1]: 90% | pest or weed control at 100 g/ha [1]: 90% | Emax at 4 g/ha [11]: 90%

Structure (SMILES): CCS(=O)(=O)c1ccc(NC(=O)n2cc(Br)cn2)nc1-c1nc2cc(C(F)(F)F)ncc2n1C [Example I-13]
pest or weed control at 100 g/ha [1]: 90% | pest or weed control at 4 ppm [6]: 90%

Structure (SMILES): CCS(=O)(=O)c1ccc(NC(=O)N2CCCC2)nc1-c1nc2cc(C(F)(F)F)ncc2n1C [Example I-14]
pest or weed control at 100 g/ha [1]: 90% | pest or weed control at 4 ppm [6]: 100%

Structure (SMILES): CCS(=O)(=O)c1ccc(NC(=O)N(C)C)nc1-c1nc2cc(C(F)(F)F)ncc2n1C [Example I-15]
pest or weed control at 100 g/ha [1]: 90% | efficacy ([2]; 100 g/ha): 100% | nematicidal efficacy (formation of galls) [3]: 100% | pest or weed control at 4 ppm [6]: 100%

Structure (SMILES): CCC(=O)Nc1ccc(S(=O)(=O)CC)c(-c2nc3cc(C(F)(F)F)ncc3n2C)n1 [Example No. 13 known from WO 2016/124557, reference compound]
Emax at 20 g/ha [2]: 50% | Emax at 100 g/ha [4]: 0% | Emax at 500 g/ha [4]: 70%

Structure (SMILES): CCS(=O)(=O)c1ccc(N(C)C(C)=O)nc1-c1nc2cc(C(F)(F)F)ncc2n1C [Example No. 69 known from WO 2016/124557, reference compound]
Emax at 20 g/ha [1]: 0% | Emax at 4 g/ha [11]: 0%

Structure (SMILES): CCS(=O)(=O)c1ccc(NC(C)=O)nc1-c1nc2cc(C(F)(F)F)ncc2n1C [reference compound]
Emax at 20 g/ha [10]: 0%
